We go through 58 compounds from ChEMBL document CHEMBL4402526, “Design and Synthesis of Fungal-Selective Resorcylate Aminopyrazole Hsp90 Inhibitors” (J Med Chem, 2020).

The source made the active and inactive calls. No rule for the calls is given here.

One assay relates to Candida albicans. Put plainly: Antifungal activity against Candida albicans clinical isolate 2 assessed as fungal growth inhibition at <= […] uM measured after 48 hrs by resazurin assay. The format is functional, organism-based. A general note: Alamar Blue is a resazurin reagent that responds to reducing activity.
The subject of a further assay is Cryptococcus neoformans. Put plainly: Antifungal activity against Cryptococcus neoformans H99 assessed as fungal growth inhibition at <= […] uM measured after 48 hrs by resazurin assay. Format: functional, organism-based.

Turning to `CC(C)Cn1nccc1Nc1cc(O)cc(O)c1C(=O)N1Cc2ccccc2C1`, the result in the assay on Candida albicans and in the assay with Cryptococcus neoformans was Active.

On to `COc1ccc(Cn2nc(C)cc2Nc2cc(O)cc(O)c2C(=O)N2Cc3cccnc3C2)cc1`, for which the result with Candida albicans and in the assay on Cryptococcus neoformans was Active.

As to `CC(C)Cn1nc(-c2ccccc2)cc1Nc1cc(O)cc(O)c1C(=O)N1Cc2cccnc2C1`, the outcome with Candida albicans and with Cryptococcus neoformans was Active.

For the compound `Cn1nc(-c2cccc(C(F)(F)F)c2)cc1Nc1cc(O)cc(O)c1C(=O)N1Cc2ccccc2C1`, the outcome in the assay on Candida albicans and in the assay on Cryptococcus neoformans was Active.

With `CC(C)Cn1nccc1Nc1cc(O)cc(O)c1C(=O)N1Cc2cccnc2C1`, the outcome with Candida albicans and in the assay on Cryptococcus neoformans was Active.

`COc1ccc(Cn2nc(C3CCCC3)cc2Nc2cc(O)cc(O)c2C(=O)N2Cc3cccnc3C2)cc1`: the outcome with Candida albicans and in the assay on Cryptococcus neoformans was Active.

Regarding `Cn1nc(-c2ccccc2)cc1Nc1cc(O)cc(O)c1C(=O)N1Cc2ccccc2C1`, the outcome with Candida albicans and with Cryptococcus neoformans was Active.

Turning to `Cc1ccc(Cn2nc(C)cc2Nc2cc(O)cc(O)c2C(=O)N2Cc3ccccc3C2)cc1`, the outcome in the assay on Candida albicans and in the assay with Cryptococcus neoformans was Active.

As for `O=C(c1c(O)cc(O)cc1Nc1ccnn1Cc1ccccc1)N1Cc2cn[nH]c2C1`, the outcome in the assay on Candida albicans and with Cryptococcus neoformans was Active.

As for `CC(C)Cn1nccc1Nc1cc(O)cc(O)c1C(=O)N1Cc2cn[nH]c2C1`, the result in the assay with Candida albicans and in the assay with Cryptococcus neoformans was Active.

As to `Cn1nccc1Nc1cc(O)cc(O)c1C(=O)N1Cc2cccnc2C1`, the outcome in the assay with Candida albicans and with Cryptococcus neoformans was Active.

For `COc1ccc(-c2cc(Nc3cc(O)cc(O)c3C(=O)N3Cc4cccnc4C3)n(C)n2)cc1`, the result with Candida albicans and in the assay with Cryptococcus neoformans was Active.

Consider `O=C(c1c(O)cc(O)cc1Nc1ccnn1Cc1ccc(C(F)(F)F)cc1)N1Cc2cccnc2C1`, for which the outcome in the assay with Candida albicans and with Cryptococcus neoformans was Active.

With `O=C(c1c(O)cc(O)cc1Nc1ccnn1C1CCCCC1)N1Cc2cccnc2C1`, the result in the assay on Candida albicans and in the assay on Cryptococcus neoformans was Active.

`Cn1nc(C2CCCCC2)cc1Nc1cc(O)cc(O)c1C(=O)N1Cc2cccnc2C1`: the result in the assay on Candida albicans and with Cryptococcus neoformans was Active.

`O=C(c1c(O)cc(O)cc1Nc1ccnn1C1CCCCC1)N1Cc2ccccc2C1`: the result with Candida albicans and in the assay with Cryptococcus neoformans was Active.

For the compound `O=C(c1c(O)cc(O)cc1Nc1ccnn1Cc1ccco1)N1Cc2ccccc2C1`, the result with Candida albicans and in the assay with Cryptococcus neoformans was Active.

`O=C(c1c(O)cc(O)cc1Nc1ccnn1Cc1ccco1)N1Cc2cn[nH]c2C1`: the result in the assay with Candida albicans and in the assay on Cryptococcus neoformans was Active.

Take `CC(C)c1ccc(Cn2nccc2Nc2cc(O)cc(O)c2C(=O)N2Cc3cn[nH]c3C2)cc1`: the result in the assay on Candida albicans and in the assay with Cryptococcus neoformans was Active.

Take `O=C(c1c(O)cc(O)cc1Nc1ccnn1CC1CCCCC1)N1Cc2ccccc2C1`: the outcome with Candida albicans and in the assay with Cryptococcus neoformans was Active.

For `COc1ccc(Cn2nc(-c3ccccc3)cc2Nc2cc(O)cc(O)c2C(=O)N2Cc3cn[nH]c3C2)cc1`, the outcome in the assay on Candida albicans and in the assay with Cryptococcus neoformans was Active.

In the case of `Cc1cccc(-c2cc(Nc3cc(O)cc(O)c3C(=O)N3Cc4cccnc4C3)n(C)n2)c1`, the result in the assay on Candida albicans and in the assay with Cryptococcus neoformans was Active.

With `COc1ccc(Cn2nc(-c3ccccc3)cc2Nc2cc(O)cc(O)c2C(=O)N2Cc3ccc(NC4CCN(C)CC4)cc3C2)cc1`, the result in the assay with Candida albicans and in the assay on Cryptococcus neoformans was Active.

Take `COc1ccc(Cn2nc(-c3ccccc3)cc2Nc2cc(O)cc(O)c2C(=O)N2Cc3cccnc3C2)cc1`: the outcome with Candida albicans and with Cryptococcus neoformans was Active.

Turning to `O=C(c1c(O)cc(O)cc1Nc1ccnn1Cc1cccnc1)N1Cc2cn[nH]c2C1`, the outcome in the assay with Candida albicans and with Cryptococcus neoformans was Active.

Regarding `Cn1nccc1Nc1cc(O)cc(O)c1C(=O)N1Cc2ccccc2C1`, the result in the assay with Candida albicans and in the assay on Cryptococcus neoformans was Active.

Regarding `CC(C)c1cc(Nc2cc(O)cc(O)c2C(=O)N2Cc3cccnc3C2)n(C)n1`, the result in the assay on Candida albicans and with Cryptococcus neoformans was Active.

`Cn1nc(-c2ccc(C(C)(C)C)cc2)cc1Nc1cc(O)cc(O)c1C(=O)N1Cc2ccccc2C1`: the outcome in the assay with Candida albicans and in the assay on Cryptococcus neoformans was Active.

Regarding `Cn1nc(-c2ccccc2)cc1Nc1cc(O)cc(O)c1C(=O)N1Cc2cccnc2C1`, the outcome with Candida albicans and in the assay with Cryptococcus neoformans was Active.

`O=C(c1c(O)cc(O)cc1Nc1ccnn1Cc1cccnc1)N1Cc2cccnc2C1`: the result with Candida albicans and in the assay with Cryptococcus neoformans was Active.

With `CC(C)(C)n1nc(-c2ccccc2)cc1Nc1cc(O)cc(O)c1C(=O)N1Cc2cccnc2C1`, the result with Candida albicans and in the assay on Cryptococcus neoformans was Active.

As to `O=C(c1c(O)cc(O)cc1Nc1ccnn1C1CCCCC1)N1Cc2cn[nH]c2C1`, the result with Candida albicans and in the assay on Cryptococcus neoformans was Active.

For `Cn1nc(-c2ccccc2)cc1Nc1cc(O)cc(O)c1C(=O)N1Cc2cn[nH]c2C1`, the result in the assay on Candida albicans and in the assay on Cryptococcus neoformans was Active.

For the compound `COc1ccc(Cn2nc(C)cc2Nc2cc(O)cc(O)c2C(=O)N2Cc3ccc(NC4CCN(C)CC4)cc3C2)cc1`, the result in the assay with Candida albicans and with Cryptococcus neoformans was Active.

In the case of `O=C(c1c(O)cc(O)cc1Nc1ccnn1Cc1ccco1)N1Cc2cccnc2C1`, the result in the assay with Candida albicans and with Cryptococcus neoformans was Active.

Regarding `Cn1nccc1Nc1cc(O)cc(O)c1C(=O)N1Cc2cn[nH]c2C1`, the outcome in the assay with Candida albicans and in the assay on Cryptococcus neoformans was Active.

Take `Cc1ccc(-c2cc(Nc3cc(O)cc(O)c3C(=O)N3Cc4cccnc4C3)n(C)n2)cc1`: the outcome in the assay on Candida albicans and with Cryptococcus neoformans was Active.

As for `COc1ccc(Cn2nc(C(C)C)cc2Nc2cc(O)cc(O)c2C(=O)N2Cc3cn[nH]c3C2)cc1`, the result in the assay on Candida albicans and with Cryptococcus neoformans was Active.

For the compound `O=C(c1c(O)cc(O)cc1Nc1cc(-c2ccccc2)nn1C1CCCCC1)N1Cc2cccnc2C1`, the result in the assay with Candida albicans and in the assay with Cryptococcus neoformans was Active.

`COc1ccc(Cn2ncc(Cc3ccccc3)c2Nc2cc(O)cc(O)c2C(=O)N2Cc3ccccc3C2)cc1`: the result with Candida albicans and with Cryptococcus neoformans was Active.

On to `COc1ccc(Cn2nc(-c3ccoc3)cc2Nc2cc(O)cc(O)c2C(=O)N2Cc3cn[nH]c3C2)cc1`, for which the result in the assay on Candida albicans and in the assay with Cryptococcus neoformans was Active.

With `CC(C)c1cc(Nc2cc(O)cc(O)c2C(=O)N2Cc3ccccc3C2)n(C)n1`, the outcome with Candida albicans and in the assay on Cryptococcus neoformans was Active.

Consider `O=C(c1c(O)cc(O)cc1Nc1ccnn1CC1CCCCC1)N1Cc2cn[nH]c2C1`, for which the result in the assay with Candida albicans and with Cryptococcus neoformans was Active.

`COc1ccc(Cn2ncc(-c3ccccc3)c2Nc2cc(O)cc(O)c2C(=O)N2Cc3ccccc3C2)cc1`: the outcome with Candida albicans and in the assay on Cryptococcus neoformans was Active.

In the case of `COc1ccc(-c2cc(Nc3cc(O)cc(O)c3C(=O)N3Cc4ccccc4C3)n(C)n2)cc1`, the outcome in the assay on Candida albicans and in the assay on Cryptococcus neoformans was Active.

Consider `COc1ccc(Cn2nc(C)cc2Nc2cc(O)cc(O)c2C(=O)N2Cc3cccc(F)c3C2)cc1`, for which the result in the assay with Candida albicans and with Cryptococcus neoformans was Active.

On to `COc1ccc(Cn2nc(C3CCCC3)cc2Nc2cc(O)cc(O)c2C(=O)N2Cc3cn[nH]c3C2)cc1`, for which the outcome in the assay with Candida albicans and in the assay on Cryptococcus neoformans was Active.

Regarding `Cn1nc(-c2cccc(C(F)(F)F)c2)cc1Nc1cc(O)cc(O)c1C(=O)N1Cc2cn[nH]c2C1`, the result in the assay on Candida albicans and in the assay with Cryptococcus neoformans was Active.

For the compound `Cn1nc(C2CCCCC2)cc1Nc1cc(O)cc(O)c1C(=O)N1Cc2ccccc2C1`, the result with Candida albicans and in the assay on Cryptococcus neoformans was Active.

With `CCc1cc(Nc2cc(O)cc(O)c2C(=O)N2Cc3cn[nH]c3C2)n(Cc2ccc(OC)cc2)n1`, the outcome in the assay on Candida albicans and in the assay with Cryptococcus neoformans was Active.

With `Cn1nc(-c2ccc(C(F)(F)F)cc2)cc1Nc1cc(O)cc(O)c1C(=O)N1Cc2ccccc2C1`, the result in the assay on Candida albicans and with Cryptococcus neoformans was Active.

Turning to `COc1ccc(Cn2nc(C(C)C)cc2Nc2cc(O)cc(O)c2C(=O)N2Cc3cccnc3C2)cc1`, the result with Candida albicans and with Cryptococcus neoformans was Active.

For `COc1ccc(Cn2nc(C)cc2Nc2cc(O)cc(O)c2C(=O)N2Cc3cn[nH]c3C2)cc1`, the result in the assay with Candida albicans and in the assay with Cryptococcus neoformans was Active.

Turning to `COc1ccc(Cn2nc(C)cc2Nc2cc(O)cc(O)c2C(=O)N2Cc3ccc(N4CCN(C)CC4)cc3C2)cc1`, the result in the assay with Candida albicans and in the assay with Cryptococcus neoformans was Active.

For `Cc1ccccc1-c1cc(Nc2cc(O)cc(O)c2C(=O)N2Cc3cccnc3C2)n(C)n1`, the outcome in the assay with Candida albicans and in the assay on Cryptococcus neoformans was Active.

As for `COc1ccc(Cn2nc(-c3ccccc3)cc2Nc2cc(O)cc(O)c2C(=O)N2Cc3cccc(F)c3C2)cc1`, the result in the assay with Candida albicans and in the assay with Cryptococcus neoformans was Active.

In the case of `CCc1cc(Nc2cc(O)cc(O)c2C(=O)N2Cc3cccnc3C2)n(Cc2ccc(OC)cc2)n1`, the result with Candida albicans and in the assay on Cryptococcus neoformans was Active.

For the compound `CC(C)n1nccc1Nc1cc(O)cc(O)c1C(=O)N1Cc2cccnc2C1`, the outcome with Candida albicans and in the assay with Cryptococcus neoformans was Active.
